Measured values published in patent US11040038B2, “Methods for treating diseases associated with abnormal ACVR1 expression and ACVR1 inhibitors for use in the same” (Sumitomo Dainippon Pharma Oncology, Inc., priority 2018, dated 2021).
Values after ≈ are worked out from the molar mass of the structure shown. Where two headings read alike, the source gives them in different places. Values belong to the molecule of their own block, whether it stands above or below them.

Experiments:
Type in all cases: physicochemical
[1] = Hygroscopicity by DVS at 25° C.; conditions: for Hygroscopicity (%), water uptake: 25° C./80% RH
Experimental: A DVS isotherm plot was collected at 25° C. to investigate the solid form stability as a function of humidity. All the anhydrous samples were pre-equilibrated at 0% RH to remove the unbounded solvent or water before getting started. As evidenced by the water uptake of […] up to 80% RH, freebase Form A and both two salt forms were slightly hygroscopic, and no solid form change was observed after DVS evaluation (FIGS. 20A, 20B, 20C, 20D, 20E, and 20F).
Dynamic Vapor Sorption (DVS) was measured via a SMS (Surface Measurement Systems) DVS Intrinsic. The relative humidity at 25° C. were calibrated against deliquescence point of LiCl, Mg(NO3)2 and KCl.

[2] = Solid-state stability under 40° C./75% RH for one week; conditions: for Solid-state Stability: 40° C./75% RH for at least one week; for FC: form change based on XRPD results / Purity vs. Initial (%): 40° C./75% RH; for FC: form change based on XRPD results / Purity vs. Initial (%) / Purity (area %): one week; for Purity (area %): after 40° C./75% RH, HPLC
Experimental: Solid-state stability of freebase Form A, HCl salt Form A and fumarate Form A was evaluated under 40° C./75% RH for one week. Stability samples were characterized by XRPD to check any solid form change and by HPLC to check purity change.

[3] = Kinetic solubility in pH 2, 5 and 7 buffers at RT; conditions: for S: solubility / pH: final pH of supernatant / FC: solid form change / solubility at 1 h / solubility at 2 h / solubility at 4 h / solubility at 24 h: RT; for solubility at 1 h / solubility at 2 h / solubility at 4 h / solubility at 24 h: 19 °C, aqueous buffer, thermodynamic from solid, read-out: S: solubility
Experimental: Kinetic solubility of two salt leads was measured in pH 2, 5, and 7 buffers to evaluate their solubility and disproportionation risk, using freebase Form A (812608-05-A) as control. […] After centrifugation, supernatants were collected for HPLC and pH tests, and wet cakes were collected for XRPD characterization. If clear solutions were obtained, accurate concentration was measured for the solutions.
Agilent 1100/1260 HPLC was utilized and detailed chromatographic conditions for purity and solubility measurement are listed in Table 39.

[4] = Estimated pKa values; conditions: method not stated
[5] = Approximate solubility of freebase in 12 solvents at RT; conditions: thermodynamic from solid
Experimental: Approximate solubility of freebase Form A (812608-05-A) was measured in 12 solvents at RT. For each experiment, approximately 2 mg of sample was added into a 3 mL glass vial. Solvents in Table 35 were then added step wise (50, 50, 200, 200, 500 μL) into the vials until the solids were dissolved visually or a total volume of 1 mL was reached. Solubility results summarized in Table 35 were used to guide the solvent selection in salt screening design.

Water uptake ([1]; 25° C., 95% RH): 1.40%
Hygroscopicity (%), water uptake [1]: (0.86) %
FC: form change based on XRPD results [2]: No
Purity vs. Initial (%) [2]: 99.9%
Purity (area %) [2]: 99.54 area %
S: solubility ([3]; pH 2 buffer, 1 hr): 13.4 mg/mL
pH: final pH of supernatant ([3]; pH 2 buffer, 1 hr): 5.5
S: solubility ([3]; pH 2 buffer, 2 hrs): 13.3 mg/mL
pH: final pH of supernatant ([3]; pH 2 buffer, 2 hrs): 5.6
S: solubility ([3]; pH 2 buffer, 4 hrs): 13.2 mg/mL
pH: final pH of supernatant ([3]; pH 2 buffer, 4 hrs): 5.6
S: solubility ([3]; pH 2 buffer, 24 hrs): 11.8 mg/mL
pH: final pH of supernatant ([3]; pH 2 buffer, 24 hrs): 5.6
S: solubility ([3]; pH 5 buffer, 1 hr): 13.2 mg/mL
pH: final pH of supernatant ([3]; pH 5 buffer, 1 hr): 5.7
S: solubility ([3]; pH 5 buffer, 2 hrs): 13.0 mg/mL
pH: final pH of supernatant ([3]; pH 5 buffer, 2 hrs): 5.7
S: solubility ([3]; pH 5 buffer, 4 hrs): 13.0 mg/mL
pH: final pH of supernatant ([3]; pH 5 buffer, 4 hrs): 5.7
S: solubility ([3]; pH 5 buffer, 24 hrs): 11.6 mg/mL
pH: final pH of supernatant ([3]; pH 5 buffer, 24 hrs): 5.7
FC: solid form change ([3]; pH 7 buffer, 1 hr): Yes
S: solubility ([3]; pH 7 buffer, 1 hr): 13.5 mg/mL
pH: final pH of supernatant ([3]; pH 7 buffer, 1 hr): 7.0
FC: solid form change ([3]; pH 7 buffer, 2 hrs): Yes
S: solubility ([3]; pH 7 buffer, 2 hrs): 9.6 mg/mL
pH: final pH of supernatant ([3]; pH 7 buffer, 2 hrs): 6.9
FC: solid form change ([3]; pH 7 buffer, 4 hrs): Yes
S: solubility ([3]; pH 7 buffer, 4 hrs): 9.4 mg/mL
pH: final pH of supernatant ([3]; pH 7 buffer, 4 hrs): 6.9
FC: solid form change ([3]; pH 7 buffer, 24 hrs): Yes
S: solubility ([3]; pH 7 buffer, 24 hrs): 0.21 mg/mL
pH: final pH of supernatant ([3]; pH 7 buffer, 24 hrs): 6.4
Structure (SMILES): COc1cc(Nc2nccc(Nc3cccnc3-c3ccccn3)n2)ccc1N1CCN(C)CC1.Cl [HCl Salt Form A, N^4-(2,2′-bipyridin-3-yl)-N^2-(3-methoxy-4-(4-methylpiperazin-1-yl)phenyl)pyrimidine-2,4-diamine anhydrous hydrochloric acid salt]
Solid-state Stability [2]: Good physicochemical properties under 40° C./75%
Kinetic Solubility compared with freebase Form A ([3]; pH 2, 5 and 7 buffers): showed increased solubility in pH 2, 5 and 7 buffers;

Hygroscopicity (%), water uptake [1]: (0.60) %
pKa [4]: 7.5
FC: form change based on XRPD results [2]: No
Purity vs. Initial (%) [2]: 100.0%
Purity (area %) [2]: 99.18 area %
solubility at 1 h ([3]; pH 2 buffer, 1 hr): 4300 µg/mL (≈ 9.18 mM)
solubility at 2 h ([3]; pH 2 buffer, 2 hrs): 4100 µg/mL (≈ 8.75 mM)
solubility at 4 h ([3]; pH 2 buffer, 4 hrs): 4100 µg/mL (≈ 8.75 mM)
solubility at 24 h ([3]; pH 2 buffer, 24 hrs): 3200 µg/mL (≈ 6.83 mM)
solubility at 1 h ([3]; pH 5 buffer, 1 hr): 7400 µg/mL (≈ 15.8 mM)
solubility at 2 h ([3]; pH 5 buffer, 2 hrs): 7200 µg/mL (≈ 15.4 mM)
solubility at 4 h ([3]; pH 5 buffer, 4 hrs): 6300 µg/mL (≈ 13.4 mM)
solubility at 24 h ([3]; pH 5 buffer, 24 hrs): 6600 µg/mL (≈ 14.1 mM)
solubility at 1 h ([3]; pH 7 buffer, 1 hr): 0.4 µg/mL (≈ 0.000854 mM)
solubility at 2 h ([3]; pH 7 buffer, 2 hrs): 1 µg/mL (≈ 0.00213 mM)
solubility at 4 h ([3]; pH 7 buffer, 4 hrs): 0.4 µg/mL (≈ 0.000854 mM)
solubility at 24 h ([3]; pH 7 buffer, 24 hrs): 8.9 µg/mL (≈ 0.019 mM)
FC: solid form change ([3]; pH 2 buffer, 1 hr): No
pH: final pH of supernatant ([3]; pH 2 buffer, 1 hr): 6.2
FC: solid form change ([3]; pH 2 buffer, 2 hrs): No
pH: final pH of supernatant ([3]; pH 2 buffer, 2 hrs): 6.2
FC: solid form change ([3]; pH 2 buffer, 4 hrs): No
pH: final pH of supernatant ([3]; pH 2 buffer, 4 hrs): 6.2
FC: solid form change ([3]; pH 2 buffer, 24 hrs): No
pH: final pH of supernatant ([3]; pH 2 buffer, 24 hrs): 6.1
FC: solid form change ([3]; pH 5 buffer, 1 hr): No*
pH: final pH of supernatant ([3]; pH 5 buffer, 1 hr): 6.2
FC: solid form change ([3]; pH 5 buffer, 2 hrs): No*
pH: final pH of supernatant ([3]; pH 5 buffer, 2 hrs): 6.3
FC: solid form change ([3]; pH 5 buffer, 4 hrs): No
pH: final pH of supernatant ([3]; pH 5 buffer, 4 hrs): 6.4
FC: solid form change ([3]; pH 5 buffer, 24 hrs): No
pH: final pH of supernatant ([3]; pH 5 buffer, 24 hrs): 6.4
FC: solid form change ([3]; pH 7 buffer, 1 hr): No
pH: final pH of supernatant ([3]; pH 7 buffer, 1 hr): 7.0
FC: solid form change ([3]; pH 7 buffer, 2 hrs): No
pH: final pH of supernatant ([3]; pH 7 buffer, 2 hrs): 6.9
FC: solid form change ([3]; pH 7 buffer, 4 hrs): No
pH: final pH of supernatant ([3]; pH 7 buffer, 4 hrs): 7.0
FC: solid form change ([3]; pH 7 buffer, 24 hrs): No
pH: final pH of supernatant ([3]; pH 7 buffer, 24 hrs): 7.0
solubility ([5]; organic solvent or mixture, ACN): < 2000 µg/mL
solubility ([5]; organic solvent or mixture, Acetone): < 2400 µg/mL
solubility ([5]; organic solvent or mixture, EtOAc): < 2500 µg/mL
solubility ([5]; organic solvent or mixture, EtOH): 2100 to 4200 µg/mL (≈ 4.48 to 8.96 mM)
solubility ([5]; organic solvent or mixture, IPA): < 2400 µg/mL
solubility ([5]; organic solvent or mixture, IPAc): < 2400 µg/mL
solubility ([5]; organic solvent or mixture, MIBK): 1900 to 3800 µg/mL (≈ 4.05 to 8.11 mM)
solubility ([5]; organic solvent or mixture, MeOH): 2400 to 4800 µg/mL (≈ 5.12 to 10.2 mM)
solubility ([5]; organic solvent or mixture, THF): 3600 to 6000 µg/mL (≈ 7.68 to 12.8 mM)
solubility ([5]; organic solvent or mixture, Toluene): 2000 to 4000 µg/mL (≈ 4.27 to 8.54 mM)
solubility ([5]; organic solvent or mixture, n-Heptane): < 2100 µg/mL
solubility ([5]; water, H2O): < 1900 µg/mL
Structure (SMILES): COc1cc(Nc2nccc(Nc3cccnc3-c3ccccn3)n2)ccc1N1CCN(C)CC1 [Freebase Form A, N^4-(2,2′-bipyridin-3-yl)-N^2-(3-methoxy-4-(4-methylpiperazin-1-yl)phenyl)pyrimidine-2,4-diamine]
Solid-state Stability [2]: Good physicochemical properties under 40° C./75%
